According to the supplement of paper PMC11579375:

Tests used:
Assay in all cases: area under the viability dose-response curve (AUC) (AUC (arbitrary units, max 500 = no viability loss)); higher = less sensitive (higher viability)
Details in all cases: exposure time: 120 h; concentration range: 0.1 nM - 10 µM, 6 doses
10F2 = test system: 10F2 (fetal-II hepatoblastoma organoid with high liver markers)
Experimental: (§1)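 Patient-derived hepatoblastoma tumor organoids (about 50 organoids per well, 384-well plates, medium with 5% BME) were treated with the PMC pediatric cancer drug library. Each drug was tested in duplicate at 6 concentrations (0.1 nM to 10 µM, 10-fold steps).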

135F2 = test system: 135F2 (fetal-II hepatoblastoma organoid with high liver markers)
Experimental: as §1

13E = test system: 13E (embryonal-type hepatoblastoma organoid)
Experimental: as §1

13F2 = test system: 13F2 (fetal-II hepatoblastoma organoid with high liver markers)
Experimental: as §1

17E = test system: 17E (embryonal-type hepatoblastoma organoid)
Experimental: as §1

17F1 = test system: 17F1 (fetal-I hepatoblastoma organoid with intermediate liver markers)
Experimental: as §1

22E = test system: 22E (embryonal-type hepatoblastoma organoid)
Experimental: as §1

27F1 = test system: 27F1 (fetal-I hepatoblastoma organoid with intermediate liver markers)
Experimental: as §1

3E = test system: 3E (embryonal-type hepatoblastoma organoid)
Experimental: as §1

8F1 = test system: 8F1 (fetal-I hepatoblastoma organoid with intermediate liver markers)
Experimental: as §1

96F1 = test system: 96F1 (fetal-I hepatoblastoma organoid with intermediate liver markers)
Experimental: as §1

SMILES	area under the viability dose-response curve (10F2)	area under the viability dose-response curve (135F2)	area under the viability dose-response curve (13E)	area under the viability dose-response curve (13F2)	area under the viability dose-response curve (17E)	area under the viability dose-response curve (17F1)	area under the viability dose-response curve (22E)	area under the viability dose-response curve (27F1)	area under the viability dose-response curve (3E)	area under the viability dose-response curve (8F1)	area under the viability dose-response curve (96F1)
S=P(N1CC1)(N1CC1)N1CC1 [ThioTEPA]	394	440	483	433	443	488	474	472	400	478	461
Cc1cccc(-c2[nH]c(CNc3ccccc3F)nc2-c2ccc3ncnn3c2)n1 [Vactosertib]	394	481	493	> 500	> 500	> 500	481	> 500	419	491	496
CCc1c2c(nc3ccc(O)cc13)-c1cc3c(c(=O)n1C2)COC(=O)[C@]3(O)CC [SN-38 (Irinotecan)]	173	156	266	162	200	189	312	178	156	251	173
COc1ccc(-c2nc(N3CCOCC3)c3sc(CN(C)c4ncc(C(=O)NO)cn4)cc3n2)cn1 [Fimepinostat]	169	166	236	167	158	255	237	255	161	296	235
C[C@H](NC(=O)c1c(N)nn2cccnc12)c1cc2cccc(C#Cc3cnn(C)c3)c2c(=O)n1-c1ccccc1 [IPI549]	459	> 500	463	479	464	> 500	477	> 500	428	> 500	459
N#CCNC(=O)c1ccc(-c2ccnc(Nc3ccc(N4CCOCC4)cc3)n2)cc1 [Momelotinib]	442	462	471	443	444	489	489	496	462	479	465
Cn1nnc2c(C(N)=O)ncn2c1=O [Temozolomide]	468	> 500	> 500	487	462	494	490	> 500	499	> 500	480
CC1(COc2ccc3c(c2)ncn3-c2ccc3cccc(N4CCC(N)CC4)c3n2)COC1 [Crenolanib]	480	448	> 500	446	487	479	> 500	> 500	466	> 500	467
C[C@@H]1C[C@H]2[C@@H]3CCC4=CC(=O)C=C[C@]4(C)[C@@]3(F)[C@@H](O)C[C@]2(C)[C@@]1(O)C(=O)CO [Dexamethasone]	> 500	472	473	494	> 500	477	497	> 500	> 500	484	> 500
COc1ccc([C@@H](O)c2cc(-c3ncnc4cc(N5CCOCC5)ccc34)c(F)cc2Cl)nn1 [Nedisertib]	404	463	453	394	409	486	462	493	435	479	462
CC(C)(O)CNc1nc(Nc2ccnc(C(F)(F)F)c2)nc(-c2cccc(C(F)(F)F)n2)n1 [Enasidenib]	> 500	> 500	> 500	> 500	> 500	> 500	> 500	> 500	> 500	> 500	> 500
Cc1cccc(-c2nn3c(c2-c2ccnc4ccc(C(N)=O)cc24)CCC3)n1 [Galunisertib]	465	493	493	> 500	> 500	> 500	482	> 500	> 500	> 500	481
O=c1nc(N2CCOCC2)oc2c(-c3cccc4c3sc3ccccc34)cccc12 [LTURM34]	393	467	473	484	487	490	433	> 500	486	489	497
COc1cccc(OCCCN)c1-c1cc(Nc2cnc(C#N)cn2)n[nH]1 [Prexasertib]	293	324	313	345	274	371	345	264	172	334	320
C#Cc1cccc(Nc2ncnc3cc(OCCOC)c(OCCOC)cc23)c1 [Erlotinib]	311	469	488	360	448	448	485	423	476	463	415
C=CCNC1=C2C[C@@H](C)C[C@H](OC)[C@H](O)[C@@H](C)/C=C(\C)[C@H](OC(N)=O)[C@@H](OC)/C=C\C=C(/C)C(=O)NC(=CC1=O)C2=O [Tanespimycin]	220	267	384	245	337	373	346	311	382	356	327
N[C@@H](Cc1ccc(N(CCCl)CCCl)cc1)C(=O)O [Melphalan]	414	469	417	436	434	> 500	> 500	> 500	> 500	483	467

SMILES	area under the viability dose-response curve (10F2)	area under the viability dose-response curve (135F2)	area under the viability dose-response curve (13E)	area under the viability dose-response curve (13F2)	area under the viability dose-response curve (17E)	area under the viability dose-response curve (17F1)	area under the viability dose-response curve (22E)	area under the viability dose-response curve (27F1)	area under the viability dose-response curve (3E)	area under the viability dose-response curve (8F1)	area under the viability dose-response curve (96F1)
C[C@@H]1COCCN1c1cc(C2([S@](C)(=N)=O)CC2)nc(-c2cc[nH]c3nccc2-3)n1 [Ceralasertib]	475	448	468	450	462	478	462	479	442	> 500	450
Nc1ccn([C@@H]2O[C@H](CO)[C@@H](O)C2(F)F)c(=O)n1 [Gemcitabine]	212	237	339	209	257	273	331	310	241	433	273
Nc1cc(C(F)(F)F)c(-c2cc(N3CCOCC3)nc(N3CCOCC3)n2)cn1 [Buparlisib]	385	440	413	413	416	454	425	436	383	447	449
COc1cc(OC)cc(N(CCNC(C)C)c2ccc3ncc(-c4cnn(C)c4)nc3c2)c1 [Erdafitinib]	448	496	341	323	231	499	345	467	227	489	498
COCC[n+]1c2c(n(Cc3cnccn3)c1C)C(=O)c1ccccc1C2=O [Sepantronium bromide]	348	427	337	395	331	312	316	408	241	429	286
COc1cc2nccc(Oc3ccc(NC(=O)C4(C(=O)Nc5ccc(F)cc5)CC4)cc3)c2cc1OC [Cabozantinib]	488	491	478	442	439	> 500	445	> 500	457	489	475
CC[C@]1(O)C[C@H]2CN(CCc3c([nH]c4ccccc34)[C@@](C(=O)OC)(c3cc4c(cc3OC)N(C=O)[C@H]3[C@@](O)(C(=O)OC)[C@H](OC(C)=O)[C@]5(CC)C=CCN6CC[C@]43[C@@H]65)C2)C1 [Vincristine]	188	209	174	222	181	180	193	218	125	243	196
O=C(CCCCCCC(=O)Nc1ccccc1)NO [Vorinostat]	404	408	428	400	406	437	421	440	379	452	435
C=CC(=O)N1C[C@H](Nc2ncnc3[nH]ccc23)CC[C@@H]1C	426	471	> 500	460	> 500	488	> 500	> 500	463	495	482
C=CCn1c(=O)c2cnc(Nc3ccc(N4CCN(C)CC4)cc3)nc2n1-c1cccc(C(C)(C)O)n1 [Adavosertib]	328	353	404	354	336	383	423	386	335	438	361
Nc1nc(=S)c2[nH]cnc2[nH]1 [6-Thioguanine]	462	390	437	381	432	457	448	443	484	476	412
CC[C@@]1(O)C(=O)OCc2c1cc1n(c2=O)Cc2cc3c(CN(C)C)c(O)ccc3nc2-1 [Topotecan]	311	291	328	239	269	319	416	348	257	372	284
CC(=O)c1c(C)c2cnc(Nc3ccc(N4CCNCC4)cn3)nc2n(C2CCCC2)c1=O [Palbociclib]	398	431	467	337	373	> 500	460	470	382	499	460
CN[C@@H](C)C(=O)N[C@H](C(=O)N1CCC[C@H]1C(=O)N[C@H]1c2ccccc2C[C@H]1OCC#CC#CCO[C@@H]1Cc2ccccc2[C@@H]1NC(=O)[C@@H]1CCCN1C(=O)[C@@H](NC(=O)[C@H](C)NC)C1CCCCC1)C1CCCCC1 [AZD5582]	321	483	424	470	473	446	82.8	394	148	414	458
CC(C)N(C[C@H]1O[C@@H](n2cnc3c(N)ncnc32)[C@H](O)[C@@H]1O)[C@H]1C[C@@H](CCc2nc3cc(C(C)(C)C)ccc3[nH]2)C1 [Pinometostat]	432	489	493	486	453	472	> 500	490	> 500	497	469
CCOC(=O)CCNc1cc(N2CCc3ccccc3CC2)nc(-c2ccccn2)n1 [GSK J4]	493	468	449	438	452	483	476	> 500	445	494	492
CCOc1cc2ncc(C#N)c(Nc3ccc(OCc4ccccn4)c(Cl)c3)c2cc1NC(=O)/C=C/CN(C)C [Neratinib]	234	462	464	319	424	431	453	362	444	449	416
